We go through 28 compounds from patent US11834453B2, “Substituted pyrimido[5,4-d]pyrimidines as HER2 inhibitors” (Array BioPharma Inc., priority 2020, dated 2023).

Structures are written as SMILES. Where two headings read alike, the source gives them in different places.

In experiment [1] the target is ErbB2 insYVMA (HER2-YVMA, SEQ ID NO: 2) (Homo sapiens, UniProt P04626, INS775YVMA/P1170A). Description: biochemical. Conditions: ErbB2 insYVMA enzyme assay.
The target in the next experiment is ErbB2 WT (Homo sapiens (Human), UniProt P04626). Description: ErbB enzyme assay (CisBio HTRF KinEASE-TK), Assay 2. It is filed as biochemical. Summed up:
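Readout is HTRF KinEASE-TK, using Sa-XL665 and cryptate antibody for 1 h at 22 °C, as percent of control between DMSO-only (100) and pre-quenched (0) reactions. The kinase reaction runs 30 min at 22 °C with 1 mM ATP and 250 nM biotinylated TK substrate, in HEPES pH 7.4 with MgCl2 and 2% DMSO.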
Background: Time-resolved FRET reads energy transfer from a long-lived donor to a nearby acceptor.

In the next experiment the target is EGFR (Homo sapiens (Human), UniProt P00533). Description: ErbB enzyme assay (CisBio HTRF KinEASE-TK), Assay 3. It is filed as biochemical. In short, it runs like this:
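IC50 was taken where a 4-parameter logistic fit crossed 50 percent of control (DMSO 100, pre-quenched 0), read by ratiometric HTRF. Reactions ran 30 min at 22 °C with 1 mM ATP and 250 nM TK-substrate biotin in pH 7.4 HEPES buffer with MgCl2, Triton X-100 and 2% DMSO.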

Experiment [2] has as its target ErbB2 with Exon 20 YVMA insertion (HER2-YVMA) (Homo sapiens (Human), UniProt P04626, INS775YVMA). Description: Cellular phosphorylation assay, constitutive ErbB2 phosphorylation (Y1196) in engineered NIH 3T3 cells, Assay 4. It is filed as cell-based. Summed up: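 In-cell Western in NIH 3T3 cells carrying ErbB2 exon 20 YVMA insertion, with no ligand stimulation. One hour compound exposure at 37 °C before fixation and anti-pY1196 plus GAPDH staining with dual-wavelength fluorescence. IC50 derived after GAPDH normalization.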

The target of the next experiment is EGFR wild type (EGFR WT) (Homo sapiens (Human), UniProt P00533). Description: Cellular phosphorylation assay, EGF-stimulated EGFR phosphorylation in engineered NIH 3T3 cells, Phospho-EGFR DuoSet IC ELISA, Assay 5. It is filed as cell-based. Summed up: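 Phospho-EGFR ELISA on lysates of engineered NIH 3T3 EGFR WT cells, IC50 derived from concentration curves. Cells plated at 20,000/well overnight, given compound dilutions 1 h at 37 °C, then rEGF 100 ng/ml for a further 10 min before lysis.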
(In general: An ELISA detects its analyte on a solid surface through an enzyme-linked reagent.)

What is called IC50 is the concentration that inhibits the measured activity by half.

Sequence of ErbB2 with Exon 20 YVMA insertion (HER2-YVMA) (P04626 other isoform, or with tags, fused parts or gaps ins YVMA behind 775): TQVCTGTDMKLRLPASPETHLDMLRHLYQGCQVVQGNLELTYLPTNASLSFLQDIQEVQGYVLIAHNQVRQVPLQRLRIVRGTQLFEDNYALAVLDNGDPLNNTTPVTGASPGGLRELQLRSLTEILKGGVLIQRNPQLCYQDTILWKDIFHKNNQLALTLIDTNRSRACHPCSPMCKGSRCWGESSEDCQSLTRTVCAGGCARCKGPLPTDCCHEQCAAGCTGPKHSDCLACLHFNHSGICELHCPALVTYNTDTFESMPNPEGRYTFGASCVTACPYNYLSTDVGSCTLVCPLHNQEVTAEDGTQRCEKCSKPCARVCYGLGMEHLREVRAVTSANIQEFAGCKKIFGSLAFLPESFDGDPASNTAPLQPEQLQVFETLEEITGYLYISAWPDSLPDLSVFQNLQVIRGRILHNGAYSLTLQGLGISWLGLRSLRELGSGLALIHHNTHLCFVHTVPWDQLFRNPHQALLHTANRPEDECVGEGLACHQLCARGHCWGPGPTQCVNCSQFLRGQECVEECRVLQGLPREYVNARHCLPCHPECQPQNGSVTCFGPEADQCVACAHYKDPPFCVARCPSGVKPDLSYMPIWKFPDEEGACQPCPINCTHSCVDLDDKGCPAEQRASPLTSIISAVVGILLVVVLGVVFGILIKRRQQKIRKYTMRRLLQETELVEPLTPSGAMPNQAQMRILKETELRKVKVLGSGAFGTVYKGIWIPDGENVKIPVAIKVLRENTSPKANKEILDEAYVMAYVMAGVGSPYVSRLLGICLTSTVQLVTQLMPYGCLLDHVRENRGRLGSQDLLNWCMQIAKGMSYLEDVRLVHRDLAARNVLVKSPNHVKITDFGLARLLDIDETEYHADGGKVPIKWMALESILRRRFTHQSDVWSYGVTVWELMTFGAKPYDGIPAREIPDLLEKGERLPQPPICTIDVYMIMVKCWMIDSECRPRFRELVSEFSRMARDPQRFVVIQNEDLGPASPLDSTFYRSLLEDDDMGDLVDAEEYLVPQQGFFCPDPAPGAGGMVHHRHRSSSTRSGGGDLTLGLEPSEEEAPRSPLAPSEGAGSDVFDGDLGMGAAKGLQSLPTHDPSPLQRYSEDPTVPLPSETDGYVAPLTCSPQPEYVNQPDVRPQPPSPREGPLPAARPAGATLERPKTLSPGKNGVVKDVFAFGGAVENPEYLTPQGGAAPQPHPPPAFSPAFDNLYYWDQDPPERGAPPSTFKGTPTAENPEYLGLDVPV
Sequence of ErbB2 WT (P04626 23-1255): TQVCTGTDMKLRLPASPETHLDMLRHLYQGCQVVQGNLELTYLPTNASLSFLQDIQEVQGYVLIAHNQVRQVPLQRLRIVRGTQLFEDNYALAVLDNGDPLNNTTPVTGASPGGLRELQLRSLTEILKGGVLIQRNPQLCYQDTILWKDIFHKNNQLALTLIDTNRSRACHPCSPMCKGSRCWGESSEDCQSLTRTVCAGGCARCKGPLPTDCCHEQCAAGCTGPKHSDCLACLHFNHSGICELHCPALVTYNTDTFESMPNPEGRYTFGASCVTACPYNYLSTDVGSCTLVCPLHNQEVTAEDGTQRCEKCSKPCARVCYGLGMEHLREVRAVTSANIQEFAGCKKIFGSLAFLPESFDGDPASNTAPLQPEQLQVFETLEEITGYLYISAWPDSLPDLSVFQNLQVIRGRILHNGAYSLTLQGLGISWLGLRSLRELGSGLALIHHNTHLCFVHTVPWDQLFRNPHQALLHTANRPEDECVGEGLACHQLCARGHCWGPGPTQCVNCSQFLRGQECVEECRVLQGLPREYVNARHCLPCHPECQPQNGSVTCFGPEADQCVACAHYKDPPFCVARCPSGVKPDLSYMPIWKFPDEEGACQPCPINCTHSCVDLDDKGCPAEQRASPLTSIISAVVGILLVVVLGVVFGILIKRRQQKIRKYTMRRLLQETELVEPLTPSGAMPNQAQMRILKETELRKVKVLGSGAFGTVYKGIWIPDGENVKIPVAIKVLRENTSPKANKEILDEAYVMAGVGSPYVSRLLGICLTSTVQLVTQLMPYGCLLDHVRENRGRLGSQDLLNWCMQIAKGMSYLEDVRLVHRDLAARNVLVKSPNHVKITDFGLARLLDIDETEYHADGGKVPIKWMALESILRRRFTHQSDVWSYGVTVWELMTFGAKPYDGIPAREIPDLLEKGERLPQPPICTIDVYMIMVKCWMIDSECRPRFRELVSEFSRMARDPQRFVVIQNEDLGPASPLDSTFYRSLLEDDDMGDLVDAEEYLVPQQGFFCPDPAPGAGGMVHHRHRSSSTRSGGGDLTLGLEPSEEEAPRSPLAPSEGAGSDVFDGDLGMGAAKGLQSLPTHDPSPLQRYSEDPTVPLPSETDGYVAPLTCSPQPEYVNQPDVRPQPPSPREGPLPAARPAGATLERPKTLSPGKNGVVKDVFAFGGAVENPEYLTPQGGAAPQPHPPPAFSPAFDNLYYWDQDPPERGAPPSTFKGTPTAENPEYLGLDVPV
Sequence of ErbB2 insYVMA (HER2-YVMA, SEQ ID NO: 2) (P04626 with tags, fused parts or gaps INS775YVMA/P1170A limits assumed): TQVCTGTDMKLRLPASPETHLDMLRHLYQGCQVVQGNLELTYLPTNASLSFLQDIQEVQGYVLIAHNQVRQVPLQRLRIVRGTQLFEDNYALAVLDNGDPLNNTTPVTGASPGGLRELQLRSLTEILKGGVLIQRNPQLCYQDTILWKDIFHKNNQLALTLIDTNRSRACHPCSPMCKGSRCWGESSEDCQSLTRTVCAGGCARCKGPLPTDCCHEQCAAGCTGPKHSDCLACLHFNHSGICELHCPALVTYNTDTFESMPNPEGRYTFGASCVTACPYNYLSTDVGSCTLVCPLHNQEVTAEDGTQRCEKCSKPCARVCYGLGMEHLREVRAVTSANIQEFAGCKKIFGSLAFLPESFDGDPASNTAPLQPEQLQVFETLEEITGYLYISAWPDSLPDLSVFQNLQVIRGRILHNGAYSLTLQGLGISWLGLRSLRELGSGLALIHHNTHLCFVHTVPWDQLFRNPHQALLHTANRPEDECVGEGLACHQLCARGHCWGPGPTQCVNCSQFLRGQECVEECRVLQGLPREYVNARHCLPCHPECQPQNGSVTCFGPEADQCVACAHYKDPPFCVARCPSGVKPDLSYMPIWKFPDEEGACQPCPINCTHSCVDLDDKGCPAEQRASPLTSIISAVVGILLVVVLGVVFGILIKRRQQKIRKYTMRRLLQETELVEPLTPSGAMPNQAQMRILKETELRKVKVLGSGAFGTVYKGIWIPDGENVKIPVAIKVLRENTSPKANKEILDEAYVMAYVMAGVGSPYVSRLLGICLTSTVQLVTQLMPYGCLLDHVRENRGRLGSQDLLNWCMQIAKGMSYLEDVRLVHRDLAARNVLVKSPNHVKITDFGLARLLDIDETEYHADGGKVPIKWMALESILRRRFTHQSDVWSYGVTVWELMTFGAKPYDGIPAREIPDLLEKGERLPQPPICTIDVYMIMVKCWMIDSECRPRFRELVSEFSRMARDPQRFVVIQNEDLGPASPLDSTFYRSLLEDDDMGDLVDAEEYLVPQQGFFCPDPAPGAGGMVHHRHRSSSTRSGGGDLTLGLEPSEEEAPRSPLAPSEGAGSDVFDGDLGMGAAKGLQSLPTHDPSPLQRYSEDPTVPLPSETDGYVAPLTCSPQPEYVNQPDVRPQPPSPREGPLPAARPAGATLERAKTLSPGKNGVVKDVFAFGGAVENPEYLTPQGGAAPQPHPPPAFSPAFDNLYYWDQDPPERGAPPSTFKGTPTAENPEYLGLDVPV
Sequence of EGFR wild type (EGFR WT) (P00533 25-1210): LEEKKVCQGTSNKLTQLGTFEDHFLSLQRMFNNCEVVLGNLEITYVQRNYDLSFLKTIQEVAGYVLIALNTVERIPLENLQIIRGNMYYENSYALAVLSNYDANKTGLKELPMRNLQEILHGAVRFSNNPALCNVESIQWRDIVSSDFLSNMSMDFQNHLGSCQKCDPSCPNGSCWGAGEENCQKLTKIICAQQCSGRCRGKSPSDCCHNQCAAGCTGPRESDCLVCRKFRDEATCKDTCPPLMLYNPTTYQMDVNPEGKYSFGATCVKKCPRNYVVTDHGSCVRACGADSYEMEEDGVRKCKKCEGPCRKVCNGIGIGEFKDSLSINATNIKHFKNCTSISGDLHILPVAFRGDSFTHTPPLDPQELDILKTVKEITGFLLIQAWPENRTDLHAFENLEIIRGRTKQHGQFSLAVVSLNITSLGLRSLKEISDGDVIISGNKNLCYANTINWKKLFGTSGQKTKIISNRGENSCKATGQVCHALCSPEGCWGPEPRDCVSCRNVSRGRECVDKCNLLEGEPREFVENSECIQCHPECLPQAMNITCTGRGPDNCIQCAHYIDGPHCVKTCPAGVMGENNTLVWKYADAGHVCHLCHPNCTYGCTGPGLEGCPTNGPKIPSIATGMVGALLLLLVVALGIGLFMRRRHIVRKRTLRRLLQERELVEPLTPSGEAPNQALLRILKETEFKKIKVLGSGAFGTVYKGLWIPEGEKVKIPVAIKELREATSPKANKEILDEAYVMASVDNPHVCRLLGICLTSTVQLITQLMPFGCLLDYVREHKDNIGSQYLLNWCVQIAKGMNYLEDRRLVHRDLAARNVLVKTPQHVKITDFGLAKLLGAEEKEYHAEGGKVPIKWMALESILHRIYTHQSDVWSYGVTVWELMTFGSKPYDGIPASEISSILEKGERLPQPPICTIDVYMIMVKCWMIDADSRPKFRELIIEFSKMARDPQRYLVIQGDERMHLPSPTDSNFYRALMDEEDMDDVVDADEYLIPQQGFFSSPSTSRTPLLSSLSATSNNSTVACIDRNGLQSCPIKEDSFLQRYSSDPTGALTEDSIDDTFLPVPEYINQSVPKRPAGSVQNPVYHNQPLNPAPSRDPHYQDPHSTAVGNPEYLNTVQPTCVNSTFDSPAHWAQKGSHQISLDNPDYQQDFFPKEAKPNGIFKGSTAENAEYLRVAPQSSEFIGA

On to `Cc1cc(Nc2ncnc3cnc(N(C)C[C@H]4COCCO4)nc23)ccc1Oc1ccc2c(c1)ncn2C` [Example 413], for which the IC50 in experiment [1] (read-out: Assay 1 IC50) is 49.7 nM; against ErbB2 WT, 102 nM; against EGFR it was at least 10000 nM; in experiment [2], 30.8 nM; at EGFR wild type (EGFR WT) it was at least 5000 nM.
For `Cc1cc(Nc2ncnc3cnc(N4CCC[C@@](C)(O)C4)nc23)ccc1Oc1ccn2ncnc2c1` [Example 414] the same measures were 25.2 nM, 23.7 nM, 1410 nM, 140 nM and at least 5000 nM.
For `Cc1cc(Nc2ncnc3cnc(N(C)[C@@H]4CCCOC4)nc23)ccc1Oc1ccn2ncnc2c1` [Example 415] the same measures were 16.9 nM, 16.8 nM, 970 nM, 94.6 nM and at least 5000 nM.
For `N#CC[C@@H]1CCN(c2ncc3ncnc(Nc4ccc(Oc5ccn6ncnc6c5)c(Cl)c4)c3n2)C1` [Example 416] the same measures were 11.3 nM, 21.5 nM, 2240 nM, 27.1 nM and at least 5000 nM.
As for `Cc1cc(Nc2ncnc3cnc(N4CCN5CCOC[C@H]5C4)nc23)ccc1Oc1ccn2ncnc2c1` [Example 417], the IC50 was 31.4 nM in experiment [1] (read-out: Assay 1 IC50); 62.1 nM on ErbB2 WT; 6860 nM against EGFR; 62.6 nM in experiment [2]; at least 5000 nM against EGFR wild type (EGFR WT).
Turning to `Clc1cc(Nc2ncnc3cnc(N4C[C@H]5C[C@@H]4CO5)nc23)ccc1Oc1ccn2ncnc2c1` [Example 418], the IC50 in experiment [1] (read-out: Assay 1 IC50) was 42.8 nM; on ErbB2 WT, 103 nM; against EGFR, at least 10000 nM; in experiment [2] it was 229 nM; on EGFR wild type (EGFR WT), at least 5000 nM.
For the compound `Cc1cc(Nc2ncnc3cnc(N4C5CCC4COC5)nc23)ccc1Oc1ccn2ncnc2c1` [Example 419], the IC50 in experiment [1] (read-out: Assay 1 IC50) is 110 nM; on ErbB2 WT, 196 nM; on EGFR it was at least 10000 nM; in experiment [2], 538 nM; on EGFR wild type (EGFR WT), at least 5000 nM.
In the same order, the values of `Cc1cc(Nc2ncnc3cnc(N4CCC5COCC54)nc23)ccc1Oc1ccn2ncnc2c1` (centres unmarked) [Example 420] are 8.2 nM, 12.9 nM, 1580 nM, 108 nM and at least 5000 nM.
For `Cc1cc(Nc2ncnc3cnc(N4CCN[C@@H](C(F)(F)F)C4)nc23)ccc1Oc1ccn2ncnc2c1` [Example 421] the same measures were 29.3 nM, 43 nM, 4940 nM, 69.9 nM and at least 5000 nM.
In the same order, the values of `Cc1cc(Nc2ncnc3cnc(N4CC[C@@H]4C(C)(C)O)nc23)ccc1Oc1ccn2ncnc2c1` [Example 423] are 110 nM, 337 nM, at least 10000 nM, 1950 nM and at least 5000 nM.
`CN(c1ncc2ncnc(Nc3ccc(Oc4ccn5ncnc5c4)c(Cl)c3)c2n1)C1COC1` [Example 424]: the IC50 was 16 nM in experiment [1] (read-out: Assay 1 IC50); 19.4 nM against ErbB2 WT; 3930 nM at EGFR; 44.9 nM in experiment [2]; at least 5000 nM against EGFR wild type (EGFR WT).
`Cc1cc(Nc2ncnc3cnc(N4CC5(CCN(C)C5=O)C4)nc23)ccc1Oc1ccc2c(c1)ncn2C` [Example 425]: the IC50 in experiment [1] (read-out: Assay 1 IC50) is 68.1 nM; against ErbB2 WT it was 495 nM; on EGFR, at least 10000 nM; in experiment [2], 185 nM; at EGFR wild type (EGFR WT), at least 5000 nM.
With `Clc1cc(Nc2ncnc3cnc(N4C[C@@H]5C[C@H]4CO5)nc23)ccc1Oc1ccn2ncnc2c1` [Example 426], the IC50 is 16.2 nM in experiment [1] (read-out: Assay 1 IC50); 16.2 nM on ErbB2 WT; 4210 nM against EGFR; 112 nM in experiment [2]; at least 5000 nM at EGFR wild type (EGFR WT).
With `Cc1cc(Nc2ncnc3cnc(N(C)[C@@H]4CCOC4)nc23)ccc1Oc1ccn2ncnc2c1` [Example 427], the IC50 is 25 nM in experiment [1] (read-out: Assay 1 IC50); 43.1 nM against ErbB2 WT; 7940 nM at EGFR; 121 nM in experiment [2]; at least 5000 nM on EGFR wild type (EGFR WT).
In the same order, the values of `Cc1cc(Nc2ncnc3cnc(N4CCCO4)nc23)ccc1Oc1ccn2ncnc2c1` [Example 428] are 55.5 nM, 202 nM, at least 10000 nM, 317 nM and at least 5000 nM.
For `FC(F)(F)[C@H]1CN(c2ncc3ncnc(Nc4ccc(Oc5ccn6ncnc6c5)c(Cl)c4)c3n2)CCN1` [Example 429] the same measures were 11.2 nM, 39.6 nM, 3950 nM, 46.6 nM and at least 5000 nM.
For `Clc1cc(Nc2ncnc3cnc(N4CCN5CCOC[C@H]5C4)nc23)ccc1Oc1ccn2ncnc2c1` [Example 430] the same measures were 8.6 nM, 25.5 nM, 4030 nM, 31.9 nM and at least 5000 nM.
Turning to `Clc1cc(Nc2ncnc3cnc(N4CCN5CCOC[C@@H]5C4)nc23)ccc1Oc1ccn2ncnc2c1` [Example 431], the IC50 in experiment [1] (read-out: Assay 1 IC50) is 21.8 nM; against ErbB2 WT, 63.1 nM; against EGFR, at least 10000 nM; in experiment [2], 232 nM; against EGFR wild type (EGFR WT), at least 5000 nM.
In the same order, the values of `Cc1cc(Nc2ncnc3cnc(N4CCC[C@@H]5COC[C@@H]54)nc23)ccc1Oc1ccc2c(c1)ncn2C` [Example 432] are 28.8 nM, 71.1 nM, at least 10000 nM, 80.2 nM and at least 5000 nM.
As for `O=S1(=O)CC[C@@H]2CN(c3ncc4ncnc(Nc5ccc(Oc6ccn7ncnc7c6)c(Cl)c5)c4n3)C[C@@H]21` [Example 433], the half-inhibitory concentration (IC50) in experiment [1] (read-out: Assay 1 IC50) is 29.3 nM; against ErbB2 WT, 67.4 nM; against EGFR, at least 10000 nM; in experiment [2], 385 nM; against EGFR wild type (EGFR WT), at least 5000 nM.
For `Clc1cc(Nc2ncnc3cnc(N4CC[C@@]45CCOC5)nc23)ccc1Oc1ccn2ncnc2c1` [Example 434] the same measures were 8.4 nM, 10.2 nM, 760 nM, 161 nM and at least 5000 nM.
For `CON1CCN(c2ncc3ncnc(Nc4ccc(Oc5ccn6ncnc6c5)c(Cl)c4)c3n2)CC1` [Example 436], the IC50 in experiment [1] (read-out: Assay 1 IC50) was 15.4 nM; against ErbB2 WT, 25 nM; against EGFR, at least 10000 nM; in experiment [2], 61.1 nM; at EGFR wild type (EGFR WT), at least 5000 nM.
Consider `Cc1c(Oc2ccc3c(c2)ncn3C)ccc(Nc2ncnc3cnc(N(C)CC(C)(C)O)nc23)c1F` [Example 438], for which the IC50 in experiment [1] (read-out: Assay 1 IC50) was 27.4 nM; on ErbB2 WT it was 47 nM; against EGFR, at least 10000 nM; in experiment [2], 134 nM; on EGFR wild type (EGFR WT), at least 5000 nM.
Consider `Cn1cnc2cc(Oc3ccc(Nc4ncnc5cnc(N6C[C@@H]7C[C@H]6CO7)nc45)cc3Cl)ccc21` [Example 440], for which the IC50 in experiment [1] (Assay 1 IC50 (nM)) was 48.7 nM; at ErbB2 WT it was 176 nM; against EGFR, at least 10000 nM; in experiment [2], 58.2 nM; against EGFR wild type (EGFR WT) it was at least 5000 nM.
`Cn1cnc2cc(Oc3ccc(Nc4ncnc5cnc(N6C7CCC6COC7)nc45)cc3Cl)ccc21` [Example 441]: the IC50 in experiment [1] (Assay 1 IC50 (nM)) is 106 nM; against ErbB2 WT it was 67.2 nM; at EGFR it was 9570 nM; in experiment [2], 89.1 nM; against EGFR wild type (EGFR WT), at least 5000 nM.
For `Cn1cnc2cc(Oc3ccc(Nc4ncnc5cnc(N6CC7(CCOC7)C6)nc45)cc3Cl)ccc21` [Example 442] the same measures were 69.5 nM, 180 nM, at least 10000 nM, 105 nM and at least 5000 nM.
Take `Cn1cnc2cc(Oc3ccc(Nc4ncnc5cnc(N6CCC7(CCOC7)C6)nc45)cc3Cl)ccc21` (centres unmarked) [Example 443]: the IC50 in experiment [1] (Assay 1 IC50 (nM)) is 60.1 nM; on ErbB2 WT, 104 nM; against EGFR it was at least 10000 nM; in experiment [2] it was 37.7 nM; on EGFR wild type (EGFR WT) it was at least 5000 nM.
With `Cn1cnc2cc(Oc3ccc(Nc4ncnc5cnc(N6CC[C@@H](C#N)C6)nc45)cc3Cl)ccc21` [Example 444], the IC50 in experiment [1] (read-out: Assay 1 IC50) is 24.3 nM; at ErbB2 WT it was 52.6 nM; at EGFR, at least 10000 nM; in experiment [2], 41.7 nM; against EGFR wild type (EGFR WT), at least 5000 nM.
